In the NIST ThermoML archive (doi:10.1021/acs.jced.6b00202):

COC(C)(C)C [2-methoxy-2-methylpropane]
Liquid, Brillouin light scattering
Conditions | speed of sound [m/s]
388.22 K, 1000 kPa | 646.4
388.24 K, 2500 kPa | 670.7
388.24 K, 10000 kPa | 768.1
388.25 K, 8500 kPa | 751.1
393.11 K, 5500 kPa | 691.8
393.13 K, 1000 kPa | 619
393.13 K, 4000 kPa | 669.1
393.13 K, 8500 kPa | 736.3
393.16 K, 2500 kPa | 643.2
393.22 K, 7000 kPa | 714.5
393.22 K, 10000 kPa | 753.4
398.1 K, 5500 kPa | 671.4
398.11 K, 1000 kPa | 594.9
398.18 K, 2500 kPa | 624.4
398.18 K, 4000 kPa | 647.1
398.2 K, 8500 kPa | 715.9
398.24 K, 10000 kPa | 733.5
398.25 K, 7000 kPa | 692.8
403.07 K, 7000 kPa | 672.1
403.11 K, 2500 kPa | 602.6
403.12 K, 1000 kPa | 574.7
403.12 K, 4000 kPa | 627.2
403.14 K, 5500 kPa | 649.2
403.14 K, 10000 kPa | 716.1
403.16 K, 8500 kPa | 697.5
408.09 K, 7000 kPa | 657.5
408.16 K, 4000 kPa | 605.6
408.19 K, 5500 kPa | 631.8
408.21 K, 8500 kPa | 679.5
408.23 K, 2500 kPa | 576.4
408.24 K, 10000 kPa | 697.8
413.06 K, 10000 kPa | 682.3
413.08 K, 4000 kPa | 585.4
413.14 K, 8500 kPa | 661.5
413.16 K, 5500 kPa | 612.9
413.19 K, 2500 kPa | 557.9
413.24 K, 7000 kPa | 638.1
418.07 K, 4000 kPa | 565.2
418.07 K, 7000 kPa | 617.5
418.08 K, 10000 kPa | 661.5
418.11 K, 8500 kPa | 639.1
418.19 K, 2500 kPa | 535.7
418.23 K, 5500 kPa | 588.6
423.05 K, 7000 kPa | 595.1
423.06 K, 2500 kPa | 511.7
423.06 K, 4000 kPa | 541.9
423.11 K, 8500 kPa | 624.1
423.12 K, 10000 kPa | 647.8
423.19 K, 5500 kPa | 571.4
428.11 K, 2500 kPa | 485.7
428.14 K, 5500 kPa | 549.7
428.15 K, 7000 kPa | 575.1
428.18 K, 4000 kPa | 520.9
428.19 K, 8500 kPa | 605.5
428.2 K, 10000 kPa | 625.5
433.05 K, 2500 kPa | 463.5
433.05 K, 7000 kPa | 560.1
433.08 K, 10000 kPa | 610.8
433.18 K, 4000 kPa | 498.5
433.22 K, 5500 kPa | 530.9
433.22 K, 8500 kPa | 586.5
438.11 K, 2500 kPa | 443
438.13 K, 7000 kPa | 540.4
438.13 K, 10000 kPa | 590.9
438.14 K, 5500 kPa | 507.9
438.16 K, 8500 kPa | 569
438.24 K, 4000 kPa | 477.2
443.06 K, 4000 kPa | 454.3
443.08 K, 5500 kPa | 487.7
443.12 K, 10000 kPa | 575
443.14 K, 8500 kPa | 548.7
443.18 K, 2500 kPa | 418.1
443.23 K, 7000 kPa | 519.9
448.06 K, 2500 kPa | 394.3
448.07 K, 5500 kPa | 467.5
448.16 K, 4000 kPa | 435.5
448.22 K, 7000 kPa | 500.2
448.23 K, 8500 kPa | 529.7
448.23 K, 10000 kPa | 557.1
453.07 K, 5500 kPa | 448.8
453.18 K, 4000 kPa | 411.5
453.18 K, 10000 kPa | 544
453.2 K, 2500 kPa | 372.4
453.21 K, 8500 kPa | 515.2
453.24 K, 7000 kPa | 483.8
458.06 K, 4000 kPa | 389.5
458.08 K, 7000 kPa | 464.6
458.12 K, 10000 kPa | 524.8
458.18 K, 2500 kPa | 350.8
458.22 K, 8500 kPa | 497.9
458.24 K, 5500 kPa | 426.1
463.1 K, 10000 kPa | 507.9
463.13 K, 2500 kPa | 326.7
463.14 K, 8500 kPa | 480.9
463.16 K, 5500 kPa | 409.6
463.23 K, 4000 kPa | 368.2
463.25 K, 7000 kPa | 445.2
468.06 K, 7000 kPa | 427.3
468.1 K, 10000 kPa | 491.9
468.15 K, 8500 kPa | 459.5
468.19 K, 4000 kPa | 347.2
468.22 K, 5500 kPa | 389.7
473.07 K, 4000 kPa | 324.5
473.11 K, 10000 kPa | 479
473.12 K, 8500 kPa | 443.1
473.15 K, 7000 kPa | 408.5
473.22 K, 5500 kPa | 366

Conditions | speed of sound [m/s]
393.16 K, Liquid, Brillouin Light Scattering | 609.1
398.07 K, Gas, Brillouin light scattering | 170
398.11 K, Liquid, Brillouin Light Scattering | 580.1
403.24 K, Liquid, Brillouin Light Scattering | 558
408.22 K, Gas, Brillouin light scattering | 167.8
408.23 K, Liquid, Brillouin Light Scattering | 537.6
413.2 K, Liquid, Brillouin Light Scattering | 515.8
418.16 K, Gas, Brillouin light scattering | 164.7
418.24 K, Liquid, Brillouin Light Scattering | 494.4
423.15 K, Liquid, Brillouin Light Scattering | 476
428.21 K, Gas, Brillouin light scattering | 161.2
428.24 K, Liquid, Brillouin Light Scattering | 453.8
433.05 K, Liquid, Brillouin Light Scattering | 430.3
438.17 K, Gas, Brillouin light scattering | 155.3
438.19 K, Liquid, Brillouin Light Scattering | 405.8
443.09 K, Liquid, Brillouin Light Scattering | 387.3
448.13 K, Gas, Brillouin light scattering | 148.4
448.23 K, Liquid, Brillouin Light Scattering | 360.3
453.1 K, Liquid, Brillouin Light Scattering | 339.5
458.19 K, Liquid, Brillouin Light Scattering | 313.6
458.29 K, Gas, Brillouin light scattering | 139.8
463.17 K, Gas, Brillouin light scattering | 135.7
463.23 K, Liquid, Brillouin Light Scattering | 287.1
468.18 K, Liquid, Brillouin Light Scattering | 265
468.26 K, Gas, Brillouin light scattering | 130.6
473.15 K, Gas, Brillouin light scattering | 124.5
473.17 K, Liquid, Brillouin Light Scattering | 236.5
478.08 K, Gas, Brillouin light scattering | 119
478.08 K, Liquid, Brillouin Light Scattering | 206.1
483.2 K, Liquid, Brillouin Light Scattering | 177.7
483.29 K, Gas, Brillouin light scattering | 111.8
488.11 K, Liquid, Brillouin Light Scattering | 142.8
488.15 K, Gas, Brillouin light scattering | 104.9
493.06 K, Liquid, Brillouin Light Scattering | 103.7
493.15 K, Gas, Brillouin light scattering | 96.9
